Here are results for one compound from ChEMBL document CHEMBL4507319 (2021).

The target in assay [1] is Fibroblast growth factor receptor 4 (Homo sapiens) (UniProt P22455). Nature of the assay: FGFR4(h) Eurofins kinase panel. The following applies: Compound concentration 1.0 uM.
Another assay concerns U2OS. Nature of the assay: U2-OS cell line Proliferation assay. Format: functional, Homo sapiens. The following applies: time 3 day.
The target of assay [2] is Calcium/calmodulin-dependent protein kinase type 1D (Homo sapiens) (UniProt Q8IU85). Nature of the assay: CaMKIdelta(h) Eurofins kinase panel. The following applies: Compound concentration 1.0 uM.
In a further assay the test system is VCaP. Nature of the assay: VCaP cell line Proliferation assay. Format: functional, Homo sapiens. The following applies: time 6 day.
In assay [3] the target is T1, Mitogen-activated protein kinase kinase kinase 5 (Homo sapiens) (UniProt Q99683).
T1 sequence (whole entry): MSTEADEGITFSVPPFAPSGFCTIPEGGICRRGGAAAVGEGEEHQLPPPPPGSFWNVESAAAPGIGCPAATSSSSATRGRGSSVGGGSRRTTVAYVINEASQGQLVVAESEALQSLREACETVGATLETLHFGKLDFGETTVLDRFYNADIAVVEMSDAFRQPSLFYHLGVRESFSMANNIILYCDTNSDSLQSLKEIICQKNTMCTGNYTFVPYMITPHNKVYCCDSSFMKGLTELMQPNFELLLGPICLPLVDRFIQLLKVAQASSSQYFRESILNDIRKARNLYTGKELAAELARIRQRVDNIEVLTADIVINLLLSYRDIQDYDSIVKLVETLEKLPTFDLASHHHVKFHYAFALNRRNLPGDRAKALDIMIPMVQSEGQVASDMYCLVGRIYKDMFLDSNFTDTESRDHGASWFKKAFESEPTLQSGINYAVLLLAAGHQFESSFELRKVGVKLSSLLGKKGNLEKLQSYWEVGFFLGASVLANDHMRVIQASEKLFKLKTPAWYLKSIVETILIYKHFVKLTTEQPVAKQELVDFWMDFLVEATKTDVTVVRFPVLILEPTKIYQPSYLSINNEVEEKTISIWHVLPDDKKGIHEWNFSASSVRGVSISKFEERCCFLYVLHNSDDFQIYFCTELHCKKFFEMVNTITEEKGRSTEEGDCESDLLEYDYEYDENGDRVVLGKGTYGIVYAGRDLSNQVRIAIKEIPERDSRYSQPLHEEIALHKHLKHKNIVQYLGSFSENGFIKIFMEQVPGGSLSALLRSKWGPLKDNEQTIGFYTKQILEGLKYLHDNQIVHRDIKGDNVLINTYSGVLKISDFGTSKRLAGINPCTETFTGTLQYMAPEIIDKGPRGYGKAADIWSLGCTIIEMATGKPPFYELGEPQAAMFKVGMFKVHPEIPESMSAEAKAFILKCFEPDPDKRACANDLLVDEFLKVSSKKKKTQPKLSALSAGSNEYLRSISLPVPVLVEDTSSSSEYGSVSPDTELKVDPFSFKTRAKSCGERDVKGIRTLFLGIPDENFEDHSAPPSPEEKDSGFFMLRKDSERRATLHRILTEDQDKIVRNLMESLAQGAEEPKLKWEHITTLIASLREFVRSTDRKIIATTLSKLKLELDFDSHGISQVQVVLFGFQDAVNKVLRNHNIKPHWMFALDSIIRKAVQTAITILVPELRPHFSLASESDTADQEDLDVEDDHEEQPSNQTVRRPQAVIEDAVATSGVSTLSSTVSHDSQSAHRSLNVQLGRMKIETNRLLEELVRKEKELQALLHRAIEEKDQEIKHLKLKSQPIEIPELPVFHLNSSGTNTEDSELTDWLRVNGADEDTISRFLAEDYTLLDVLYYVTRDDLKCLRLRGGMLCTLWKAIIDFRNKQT
Nature of the assay: ASK1(h) Eurofins kinase panel. As to conditions: Compound concentration 1.0 uM.

The target of assay [4] is Glycogen synthase kinase-3 beta (Homo sapiens) (UniProt P49841). Nature of the assay: GSK3β(h) Eurofins kinase panel. The following applies: Compound concentration 1.0 uM.
Assay [5] deals with Ribosomal protein S6 kinase alpha-2 (Homo sapiens, UniProt Q15349).
The target in assay [6] is SRSF protein kinase 1 (Homo sapiens) (UniProt Q96SB4). Briefly: SRPK1(h) Eurofins kinase panel. The following applies: Compound concentration 1.0 uM.
The target of assay [7] is Serine/threonine-protein kinase WNK3 (Homo sapiens) (UniProt Q9BYP7). Nature of the assay: WNK3(h) Eurofins kinase panel. As to conditions: Compound concentration 1.0 uM.
In assay [8] the target is Tyrosine-protein kinase Yes (Homo sapiens) (UniProt P07947). Nature of the assay: Yes(h) Eurofins kinase panel. The following applies: Compound concentration 1.0 uM.
In assay [9] the target is MAPK/MAK/MRK overlapping kinase (Homo sapiens) (UniProt Q9UQ07). Nature of the assay: MOK(h) Eurofins kinase panel. As to conditions: Compound concentration 1.0 uM.
For assay [10], the target named is Leucine-rich repeat serine/threonine-protein kinase 2 (Homo sapiens) (UniProt Q5S007). Nature of the assay: LRRK2(h) Eurofins kinase panel. As to conditions: Compound concentration 1.0 uM.
The target in assay [11] is Protein-tyrosine kinase 6 (Homo sapiens) (UniProt Q13882). Nature of the assay: BRK(h) Eurofins kinase panel. As to conditions: Compound concentration 1.0 uM.
Assay [12] deals with Tyrosine-protein kinase HCK (Homo sapiens) (UniProt P08631). Nature of the assay: Hck(h) activated Eurofins kinase panel. As to conditions: Compound concentration 1.0 uM.
Assay [13] has as its target Ribosomal protein S6 kinase alpha-1 (Homo sapiens, UniProt Q15418). As to conditions: Compound concentration 1.0 uM.
Assay [14] addresses PI3K p110 beta/p85 alpha (Homo sapiens) (UniProt P27986+P42338). Briefly: PI3 Kinase(p110b/p85a)(h) Eurofins kinase panel. It is filed as protein-complex assay. The following applies: Compound concentration 1.0 uM.
Assay [15] has as its target Glycogen synthase kinase-3 alpha (Homo sapiens) (UniProt P49840). Briefly: GSK3α(h) Eurofins kinase panel. The following applies: Compound concentration 1.0 uM.
The target in assay [16] is Serine/threonine-protein kinase A-Raf (Homo sapiens) (UniProt P10398). Briefly: A-Raf(h) Eurofins kinase panel. As to conditions: Compound concentration 1.0 uM.
Assay [17] has as its target T2, Mitogen-activated protein kinase kinase kinase 7 (Homo sapiens) (UniProt O43318).
T2 sequence (whole entry): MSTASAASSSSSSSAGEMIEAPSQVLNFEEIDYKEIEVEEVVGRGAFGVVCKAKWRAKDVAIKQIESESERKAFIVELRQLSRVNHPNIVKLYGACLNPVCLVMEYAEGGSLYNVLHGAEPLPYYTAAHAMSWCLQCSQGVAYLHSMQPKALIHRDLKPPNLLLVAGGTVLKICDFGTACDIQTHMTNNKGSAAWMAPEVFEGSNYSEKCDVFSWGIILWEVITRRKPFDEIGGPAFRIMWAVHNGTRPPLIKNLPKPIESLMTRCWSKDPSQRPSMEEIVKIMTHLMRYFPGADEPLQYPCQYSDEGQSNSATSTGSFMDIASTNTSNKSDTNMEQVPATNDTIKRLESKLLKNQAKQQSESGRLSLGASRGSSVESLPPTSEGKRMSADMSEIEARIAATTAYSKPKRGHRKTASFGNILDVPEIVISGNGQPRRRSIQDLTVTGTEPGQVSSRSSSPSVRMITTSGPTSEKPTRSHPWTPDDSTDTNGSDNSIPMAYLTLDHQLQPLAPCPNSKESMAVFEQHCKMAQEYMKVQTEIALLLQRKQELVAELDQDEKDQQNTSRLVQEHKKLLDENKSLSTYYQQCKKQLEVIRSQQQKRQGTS
Briefly: TAK1(h) Eurofins kinase panel. As to conditions: Compound concentration 1.0 uM.

The structures appear in SMILES notation.

Chain of Tyrosine-protein kinase Yes (Homo sapiens) (P07947 2-543 limits assumed): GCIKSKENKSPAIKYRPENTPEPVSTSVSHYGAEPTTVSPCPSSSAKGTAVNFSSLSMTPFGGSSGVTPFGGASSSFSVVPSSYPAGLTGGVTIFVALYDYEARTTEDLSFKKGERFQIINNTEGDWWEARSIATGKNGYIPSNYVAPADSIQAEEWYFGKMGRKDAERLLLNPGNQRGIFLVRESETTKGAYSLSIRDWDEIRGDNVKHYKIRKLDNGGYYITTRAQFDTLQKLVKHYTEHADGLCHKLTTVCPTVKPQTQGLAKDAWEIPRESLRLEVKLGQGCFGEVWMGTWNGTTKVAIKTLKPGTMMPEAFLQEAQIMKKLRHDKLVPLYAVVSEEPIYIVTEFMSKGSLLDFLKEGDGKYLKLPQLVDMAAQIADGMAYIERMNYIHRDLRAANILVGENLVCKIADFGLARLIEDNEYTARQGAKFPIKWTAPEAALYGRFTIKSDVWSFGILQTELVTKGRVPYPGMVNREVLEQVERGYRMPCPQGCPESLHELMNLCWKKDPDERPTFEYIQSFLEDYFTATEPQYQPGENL
Chain of Glycogen synthase kinase-3 beta (Homo sapiens) (P49841 whole entry, looked up): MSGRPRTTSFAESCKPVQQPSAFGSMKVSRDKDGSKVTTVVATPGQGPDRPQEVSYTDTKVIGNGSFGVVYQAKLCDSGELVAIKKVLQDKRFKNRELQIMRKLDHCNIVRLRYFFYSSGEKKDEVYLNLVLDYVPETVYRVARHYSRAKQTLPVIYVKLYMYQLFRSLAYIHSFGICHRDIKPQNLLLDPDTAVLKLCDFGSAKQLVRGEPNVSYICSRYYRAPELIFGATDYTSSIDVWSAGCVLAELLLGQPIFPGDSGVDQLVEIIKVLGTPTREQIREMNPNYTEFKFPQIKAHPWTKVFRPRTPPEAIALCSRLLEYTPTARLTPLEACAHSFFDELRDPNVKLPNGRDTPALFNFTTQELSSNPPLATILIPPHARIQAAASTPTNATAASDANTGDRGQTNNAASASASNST
Chain of Calcium/calmodulin-dependent protein kinase type 1D (Homo sapiens) (Q8IU85 whole entry, looked up): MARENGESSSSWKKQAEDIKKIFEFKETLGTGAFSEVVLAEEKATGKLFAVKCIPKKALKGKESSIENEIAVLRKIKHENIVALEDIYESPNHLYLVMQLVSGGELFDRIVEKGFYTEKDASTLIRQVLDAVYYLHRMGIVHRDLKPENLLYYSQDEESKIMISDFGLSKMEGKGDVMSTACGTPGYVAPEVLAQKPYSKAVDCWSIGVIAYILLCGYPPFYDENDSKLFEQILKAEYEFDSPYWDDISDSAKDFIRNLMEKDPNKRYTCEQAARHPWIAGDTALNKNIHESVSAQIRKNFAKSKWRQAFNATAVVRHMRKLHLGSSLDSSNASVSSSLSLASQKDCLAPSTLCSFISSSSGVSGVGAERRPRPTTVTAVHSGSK
Chain of Tyrosine-protein kinase HCK (Homo sapiens) (P08631 2-526 limits assumed): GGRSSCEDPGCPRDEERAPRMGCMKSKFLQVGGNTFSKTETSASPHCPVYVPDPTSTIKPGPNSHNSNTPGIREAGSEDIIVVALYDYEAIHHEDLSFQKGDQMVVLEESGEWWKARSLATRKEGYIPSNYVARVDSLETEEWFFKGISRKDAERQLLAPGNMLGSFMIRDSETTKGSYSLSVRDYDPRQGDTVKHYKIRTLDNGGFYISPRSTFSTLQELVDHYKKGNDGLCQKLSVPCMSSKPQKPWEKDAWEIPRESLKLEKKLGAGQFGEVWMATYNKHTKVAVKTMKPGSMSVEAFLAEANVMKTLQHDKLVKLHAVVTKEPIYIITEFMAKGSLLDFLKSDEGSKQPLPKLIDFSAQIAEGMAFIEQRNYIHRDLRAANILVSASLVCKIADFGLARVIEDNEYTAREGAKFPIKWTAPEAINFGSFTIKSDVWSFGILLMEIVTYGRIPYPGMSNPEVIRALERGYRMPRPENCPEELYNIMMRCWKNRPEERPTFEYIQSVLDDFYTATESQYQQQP
Chain of Ribosomal protein S6 kinase alpha-2 (Q15349 whole entry): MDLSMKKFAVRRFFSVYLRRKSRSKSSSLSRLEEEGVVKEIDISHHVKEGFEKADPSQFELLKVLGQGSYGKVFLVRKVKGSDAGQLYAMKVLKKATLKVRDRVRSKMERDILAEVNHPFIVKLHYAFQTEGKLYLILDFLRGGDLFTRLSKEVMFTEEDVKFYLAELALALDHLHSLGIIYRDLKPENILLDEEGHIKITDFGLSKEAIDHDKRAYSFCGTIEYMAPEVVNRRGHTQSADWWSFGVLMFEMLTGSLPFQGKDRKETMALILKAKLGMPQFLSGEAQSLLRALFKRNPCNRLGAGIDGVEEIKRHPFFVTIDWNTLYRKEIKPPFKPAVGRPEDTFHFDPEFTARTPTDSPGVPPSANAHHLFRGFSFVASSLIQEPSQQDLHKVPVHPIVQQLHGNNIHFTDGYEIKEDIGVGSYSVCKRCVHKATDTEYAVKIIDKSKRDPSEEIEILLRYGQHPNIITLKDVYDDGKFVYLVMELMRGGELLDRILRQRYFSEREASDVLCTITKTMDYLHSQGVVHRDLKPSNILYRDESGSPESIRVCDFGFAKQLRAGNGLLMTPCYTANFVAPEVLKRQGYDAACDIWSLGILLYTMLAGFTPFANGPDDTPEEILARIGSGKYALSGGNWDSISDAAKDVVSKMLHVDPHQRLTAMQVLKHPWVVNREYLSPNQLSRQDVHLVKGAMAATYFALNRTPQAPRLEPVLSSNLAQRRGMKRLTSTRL
Chain of Ribosomal protein S6 kinase alpha-1 (Q15418 whole entry): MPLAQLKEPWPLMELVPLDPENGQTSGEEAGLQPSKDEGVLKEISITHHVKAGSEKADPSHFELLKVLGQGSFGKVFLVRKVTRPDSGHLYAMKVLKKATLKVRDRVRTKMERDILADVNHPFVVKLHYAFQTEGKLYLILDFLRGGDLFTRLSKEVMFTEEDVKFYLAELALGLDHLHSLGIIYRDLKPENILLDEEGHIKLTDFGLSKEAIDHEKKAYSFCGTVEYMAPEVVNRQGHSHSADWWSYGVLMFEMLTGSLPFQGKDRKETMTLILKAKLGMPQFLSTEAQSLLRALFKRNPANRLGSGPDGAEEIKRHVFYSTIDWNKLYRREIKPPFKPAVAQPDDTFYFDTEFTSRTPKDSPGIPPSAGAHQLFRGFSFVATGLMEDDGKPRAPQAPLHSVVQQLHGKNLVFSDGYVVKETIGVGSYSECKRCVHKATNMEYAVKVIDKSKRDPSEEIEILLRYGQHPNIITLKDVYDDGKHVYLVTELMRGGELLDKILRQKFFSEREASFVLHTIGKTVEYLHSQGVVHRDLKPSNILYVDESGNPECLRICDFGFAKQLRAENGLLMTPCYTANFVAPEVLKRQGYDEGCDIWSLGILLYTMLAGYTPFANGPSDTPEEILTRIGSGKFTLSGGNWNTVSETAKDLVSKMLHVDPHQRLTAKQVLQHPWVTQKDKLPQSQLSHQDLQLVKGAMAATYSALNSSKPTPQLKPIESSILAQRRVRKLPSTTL
Chain of Fibroblast growth factor receptor 4 (Homo sapiens) (P22455 22-802 limits assumed): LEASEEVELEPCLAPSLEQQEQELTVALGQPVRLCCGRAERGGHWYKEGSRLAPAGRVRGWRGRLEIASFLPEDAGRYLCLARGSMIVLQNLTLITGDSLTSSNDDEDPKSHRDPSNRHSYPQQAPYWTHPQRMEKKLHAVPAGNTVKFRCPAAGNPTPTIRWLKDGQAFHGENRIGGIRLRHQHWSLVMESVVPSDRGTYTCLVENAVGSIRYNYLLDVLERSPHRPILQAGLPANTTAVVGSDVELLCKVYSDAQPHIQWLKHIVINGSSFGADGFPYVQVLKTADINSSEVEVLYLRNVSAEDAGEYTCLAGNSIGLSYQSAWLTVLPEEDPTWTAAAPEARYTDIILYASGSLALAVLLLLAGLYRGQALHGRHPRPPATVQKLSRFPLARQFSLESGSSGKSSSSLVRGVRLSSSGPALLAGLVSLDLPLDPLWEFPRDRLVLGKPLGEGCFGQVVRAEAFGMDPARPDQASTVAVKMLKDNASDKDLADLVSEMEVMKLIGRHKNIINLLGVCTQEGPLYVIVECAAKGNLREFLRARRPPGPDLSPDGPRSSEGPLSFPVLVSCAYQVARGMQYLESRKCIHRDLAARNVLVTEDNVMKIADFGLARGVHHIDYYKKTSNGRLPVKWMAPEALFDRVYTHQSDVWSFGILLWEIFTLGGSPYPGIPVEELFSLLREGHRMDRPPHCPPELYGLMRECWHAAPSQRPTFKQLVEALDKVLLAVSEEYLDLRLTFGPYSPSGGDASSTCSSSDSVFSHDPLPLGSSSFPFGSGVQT
Chain of Serine/threonine-protein kinase A-Raf (Homo sapiens) (P10398 whole entry): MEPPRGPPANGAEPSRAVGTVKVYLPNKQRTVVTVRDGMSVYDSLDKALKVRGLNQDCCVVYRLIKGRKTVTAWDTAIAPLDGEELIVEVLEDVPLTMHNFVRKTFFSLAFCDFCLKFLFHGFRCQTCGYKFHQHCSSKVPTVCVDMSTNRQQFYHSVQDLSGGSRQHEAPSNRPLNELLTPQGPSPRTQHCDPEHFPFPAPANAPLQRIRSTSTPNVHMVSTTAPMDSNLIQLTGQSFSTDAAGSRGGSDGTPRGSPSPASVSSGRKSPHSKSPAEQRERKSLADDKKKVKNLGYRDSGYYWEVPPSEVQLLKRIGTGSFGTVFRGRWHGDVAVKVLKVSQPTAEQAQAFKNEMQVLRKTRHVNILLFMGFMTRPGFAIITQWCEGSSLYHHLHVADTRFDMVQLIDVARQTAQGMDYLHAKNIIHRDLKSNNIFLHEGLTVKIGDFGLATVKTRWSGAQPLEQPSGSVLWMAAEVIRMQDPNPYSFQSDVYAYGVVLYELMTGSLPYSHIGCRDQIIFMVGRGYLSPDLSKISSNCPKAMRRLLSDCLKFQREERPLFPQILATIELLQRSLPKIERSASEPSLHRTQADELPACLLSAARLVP

For the compound `CCc1ccccc1C(=O)Nc1n[nH]c2c(C)c(F)c(C3C(C#N)=C(C)N(C)C(C)=C3C#N)cc12` [BAY-3827], the % residual kinase activity in [1] is 99%; in [2], 104%; in assay [3] it was 99%; in assay [4], 58%; in assay [6] it was 84%; in assay [7] it was 103%. Besides, the % residual kinase activity in [8] is 90%; in assay [9], 115%; in [10] it was 95%; in [11], 104%; in [12] it was 109%; in assay [13] it was 7%. Moreover, the % residual kinase activity in assay [14] is 99%; in [15], 83%; in [16], 78%; in assay [17], 104%. The “Cell Proliferation IC50” value in the assay on U2OS came to 18700 nM; in the assay on VCaP it was 1710 nM. The IC50 in assay [5] turned out to be 24 nM.
